{"source": "patent US20160046620A1", "about": "“METHODS OF CONTROLLING NEONICOTINOID RESISTANT PESTS” (SYNGENTA PARTICIPATIONS AG, priority 2013, published 2016)", "system": "Orius laevigatus", "test": "Safety to beneficial species: test on Orius laevigatus on treated french bean leaf discs", "assay_type": "in vivo", "details": "Orius laevigatus adults; for Corrected Mortality (%) 2 DAI: 2 days after infestation; for Corrected Mortality (%) 4 DAI: 4 days after infestation", "protocol": "Phaseolus vulgaris var. Fulvio (french bean) plants were reduced to one leaf. With the leaves held in a horizontal position, a track sprayer was used to treat the plants at a rate corresponding to […]. Once dry, leaf discs were collected from the plants and placed treated side up in petri dishes containing 1% water agar.\nA paper triangle was added for shelter, and a suitable amount of Ephestia eggs were added as a food supply. Five (5) Orius laevigatus (predatory bug, Syngenta Bioline) adults were added and the dishes closed with a cotton filter and perforated plastic lid. The dishes were incubated in a climate chamber at 25° C., 75% relative humidity, 16:8 h light/dark regime.\nSix replicates were provided for each treatment and concentration level. The number of living and dead Orius laevigatus were counted two and four days after infestation (DAI). At the day two evaluation the food supply was replenished.", "data": [{"smiles": "O=[N+]([O-])NC1=NCCN1Cc1ccc(Cl)nc1", "note": "[Imidacloprid, reference compound]", "values": [{"measurement": "Corrected Mortality (%) 2 DAI", "setting": "50 ppm", "value": 11, "unit": "%"}, {"measurement": "Corrected Mortality (%) 4 DAI", "setting": "50 ppm", "value": 30, "unit": "%"}, {"measurement": "Corrected Mortality (%) 2 DAI", "setting": "100 ppm", "value": 43, "unit": "%"}, {"measurement": "Corrected Mortality (%) 4 DAI", "setting": "100 ppm", "value": 65, "unit": "%"}, {"measurement": "Corrected Mortality (%) 2 DAI", "setting": "200 ppm", "value": 75, "unit": "%"}, {"measurement": "Corrected Mortality (%) 4 DAI", "setting": "200 ppm", "value": 100, "unit": "%"}]}, {"smiles": "N#Cc1cncc([C@]2(C#N)C[C@H]3CC[C@@H](C2)N3CC(F)(F)F)c1", "note": "[Compound 1.085]", "values": [{"measurement": "Corrected Mortality (%) 2 DAI", "setting": "50 ppm", "value": 0, "unit": "%"}, {"measurement": "Corrected Mortality (%) 4 DAI", "setting": "50 ppm", "value": 9, "unit": "%"}, {"measurement": "Corrected Mortality (%) 2 DAI", "setting": "100 ppm", "value": 0, "unit": "%"}, {"measurement": "Corrected Mortality (%) 4 DAI", "setting": "100 ppm", "value": 9, "unit": "%"}, {"measurement": "Corrected Mortality (%) 2 DAI", "setting": "200 ppm", "value": 0, "unit": "%"}, {"measurement": "Corrected Mortality (%) 4 DAI", "setting": "200 ppm", "value": 22, "unit": "%"}]}, {"smiles": "C#CCN1[C@@H]2CC[C@H]1C[C@](C#N)(c1cncc(C#N)c1)C2", "note": "[Compound 1.074, (1S,3S,5R)-3-(5-cyano-pyridin-3-yl)-8-prop-2-ynyl-8-aza-bicyclo[3.2.1]octane-3-carbonitrile]", "values": [{"measurement": "Corrected Mortality (%) 2 DAI", "setting": "50 ppm", "value": 4, "unit": "%"}, {"measurement": "Corrected Mortality (%) 4 DAI", "setting": "50 ppm", "value": 4, "unit": "%"}, {"measurement": "Corrected Mortality (%) 2 DAI", "setting": "100 ppm", "value": 0, "unit": "%"}, {"measurement": "Corrected Mortality (%) 4 DAI", "setting": "100 ppm", "value": 0, "unit": "%"}, {"measurement": "Corrected Mortality (%) 2 DAI", "setting": "200 ppm", "value": 7, "unit": "%"}, {"measurement": "Corrected Mortality (%) 4 DAI", "setting": "200 ppm", "value": 39, "unit": "%"}]}]}
